Assay results taken from patent publication US5705693A, “Cationic lipids” (Gilead Sciences, Inc., priority 1995, dated 1998).
Like-named read-outs stand apart in the source and are kept apart here.

Assays:
A10 cells = experiment: Transfection of A10 cells with ODN1 (Example 6); type: cell-based, rat; conditions: 18 h, 10% FBS; for cells transfected A10: 15 μg/mL lipid, 1:1 DOPE, 250 pmole ODN1; for toxicity to A10 cells / transfection of A10 in the presence of serum: in words
Description: (§1) Preparation of lipid-nucleic acid complexes and cell transfection.
Cells at about 50-100% confluency were used.

CV-1 cells [1] = experiment: Transfection of CV-1 cells with ODN1 and toxicity (Example 6); conditions: 18 h, 10% FBS; for cells transfected CV-1: 15 μg/mL lipid, 1:1 DOPE, 250 pmole ODN1
Protocol: (§4) Preparation of lipid-nucleic acid complexes and cell transfection. Lipids were prepared for complexing with nucleic acids by drying a cationic lipid-colipid mixture in CHCl3 under argon. The molar ratio of cationic lipid to colipid was adjusted by adding appropriate amounts of each lipid in CHCl3 together prior to drying. Usually 10 mL of water was added to a 100 mL round bottom flask containing a dried film of lipid and colipid. The lipids consisted of a mixture of an invention cationic lipid and the colipid DOPE (dioleylphosphatidylethanolamine). Sterile-filtered water or a low ionic strength aqueous buffer such as physiological saline, TE (10 mM tris, 1 mM EDTA, pH 7-8) or Ringer's solution was then added to the dried lipids to obtain a lipid suspension at 1 mg lipid/mL followed by a 10 minute bath sonication (Ultra Sonik 100, NEY) at room temperature to suspend the lipids in the flask. The suspended lipids (10 mL) were then sonicated 5 times for 15 seconds per sonication at 0°-4° C. with about 30-60 seconds between pulses. Sonication was usually conducted in a 15 mL polypropylene culture tube. A probe sonicator (Sonifier 250, Branson Ultrasonics) was used at maximum power for the ice bath sonication and for each 15 second pulse. The lipid suspension was optionally filtered or centrifuged (2000 rpm, 10 minutes at 0-4° C.) to remove large particulate matter and the resulting lipid suspensions were kept at 4° C. until used.
(§5) Lipid nucleic acid complexes were prepared by mixing (a) 10% v/v (usually 100 μL) oligonucleotide in Optimem™ (Bethesda Research Labs, Inc.) at room temperature (about 19°-24° C.) with (b) 10% v/v lipid suspension in Optimem™ at room temperature and allowing the mixture to stand for about 15 minutes, followed by adding (c) 80% v/v Optimem™ without serum or 80% v/v tissue culture medium (Modified Essential Medium (MEM), Dulbecco's Modified Eagle's Medium (DMEM), etc. containing 0-80% fetal bovine serum (Hyclone, Inc.). The lipid and nucleic acid solutions could also be prepared using DMEM without serum, a low ionic strength (less than about 200 mM total ion concentration) aqueous medium lacking phosphate (TE, etc) or water in place of Optimem™. Typically, 100 μL each of Optimem™ containing oligonucleotide (100-500 pmole) and Optimem™ containing added lipid was mixed with 800 μL of serum free Optimem™ or with 800 μL of tissue culture medium containing 10-80% FBS. Generally, 5 or 10 μL (5 or 10 μg) of lipid was added to 95 or 90 μL of Optimem™ to give a final 1 mL transfection preparation containing 5 or 10 μg of lipid and 250 pmole of oligonucleotide. The lipid-nucleic acid mixture was held at room temperature for about 15 min hours before adding medium to give the final transfection preparation volume (usually 1 mL) and warming to 37° C. and immediately applying onto the cells. The transfection mixture was left on the cells for 2 to 24 hours (at 37° C.), with a 6 hour time period commonly used.
(§6) Cells were typically transfected using 1 mL of transfection mixture per well in a 6-well plate. Cells at about 50-100% confluency were used. […] Typical transfections with the invention lipids used cells at about 60-100% confluency.

[2] = Transfection of CV-1 cells with ODN1 and toxicity (Example 22); type: cell-based, African green monkey; conditions: monkey, cv-1 cells; 10.0 μg lipid
Protocol: (§2) Lipids 35, 52, 54 and 55 were each prepared using a 2:1 lipid:DOPE molar ratio as follows. Two molar equivalents of each lipid in CHCl3 and one equivalent of DOPE in CHCl3 was dried under reduced pressure by rotovap at room temperature. Deionized water was then added to give 1 mg/mL of total lipid. 10 mL of water containing 10 mg of lipid was vortexed for 5 minutes in a 100 mL round bottom flask. 2 mL aliquots were then used to prepare lipid suspensions for complexing with ODN1. Each preparation was obtained by 6 cycles of freezing on dry ice and thawing in a 37° C. water bath.

CV-1 cells [3] = experiment: as above; type: cell-based, African green monkey; conditions: 2:1 DOPE, 6 h, 10% FBS, 250 pmole ODN1
Protocol: as §2

cdc-2 kinase = experiment: cdc-2 antisense oligonucleotide analog transfection, Western blot (Example 22); type: cell-based, African green monkey; conditions: 30 nM cdc-2 antisense oligonucleotide analog, 2.5 and 5.0 μg lipid
Description: The oligonucleotide contained 5-(1-propynyl)cytosine in place of cytosine and 5-(1-propynyl)uracil in place of uracil. A control oligonucleotide analog having a mismatched base sequence was also used to check for any non-specific effect on cdc-2 kinase levels in the transfected cells caused by the oligonucleotide analog. A control containing only lipid was also used as a control. […] Protein levels were examined by Western blot analysis.

SK-OV-3 cells = experiment: Transfection of SK-OV-3 cells with ODN1 in 40% or 80% FBS (Example 7); type: cell-based, human; conditions: for % SK-OV-3 transfected: 18 h, 500 pmole ODN1, 1:1 DOPE
Description: as §1
80% serum approximates the serum protein and ion conditions that exist in vivo in mammalian circulation. 30 is thus suitable for transfecting cells under physiological conditions.

L7 cells = experiment: Transfection of L7 cells with ODN1 (Example 11); type: cell-based, murine; conditions: for % L7 transfected: 20% FBS, 18 h, 250 pmole ODN1
Description: as §1

CV-1 cells [4] = tested on: CV-1 cells
Protocol: as §4, §5, §6

NHEK cells = experiment: Transfection of NHEK cells with ODN1 (Example 10); type: cell-based, human; conditions: for % NHEK transfected: DMEM, 24 h
Description: as §1

cells [5] = experiment: Amount of fluorescently labeled oligonucleotide delivered versus commercially available lipids; type: cell-based; conditions: observed fluorescence intensity, estimated
Description: The difference in transfection efficiency between lipids described herein and commercially available lipids is usually most pronounced when the transfections are done in the presence of medium containing serum. The amount of polyanion delivered into cells was estimated to be about 2- to 100-fold greater for lipids 30, 34 and 35 based on the observed fluorescence intensity of transfected cells after transfection using a fluorescently labeled oligonucleotide. The cationic lipids described herein also transfect some cell types that are not detectably transfected by commercial lipids, particularly where the transfection is conducted in the presence of serum.

ECl cells = experiment: Transfection of ECl cells with ODN1 (Example 10); type: cell-based, human; conditions: for % ECl transfected: DMEM
Description: as §1

HL60 cells = experiment: Transfection of HL60 cells with 30/ODN1 (Example 8); type: cell-based, human; conditions: for % HL60 transfected: 500 pmole ODN1
Description: as §1
(§3) The toxicity noted for HL60 cells may have been at least partly due to the high level of ODN1 that was delivered to the cells.

CV-1 cells [6] = experiment: Transfection of CV-1 cells with 30/ODN1 (Example 8); type: cell-based, African green monkey; conditions: for % CV-1 transfected: 18 h, 500 pmole ODN1
Description: as §1, §3

HUVEC cells = experiment: Transfection of HUVEC cells with ODN1 (Example 9); type: cell-based, human; conditions: for % HUVEC transfected: 10% serum, 5 h, 500 pmole ODN1
Description: as §1

cells [7] = experiment: Transfection with filtered preparations; type: cell-based; conditions: 1:1 DOPE, sonicated
Protocol: The invention cationic lipids 30 or 34 and DOPE colipid (1:1) were prepared by sonication and then filtered using 200, 100 or 50 nm filters to obtain particles less than about 200 nm in diameter, less than about 100 nm and less than about 50 nm. […] The 50 nm filtered preparations were about 40-50% as efficient as the preparations containing larger particles. The size of the particles or miscelles in a given preparation will vary depending on the preparation method. Sonicating cationic lipid-colipid mixtures will provide smaller miscelles and vortexing will provide larger miscelles (Felgner J. Biol. Chem. (1994) 269:2550-2561). Such miscelles are believed to transfer the polyanion into the cytoplasm of a eukaryotic or prokaryotic cell by pinocytosis, endocytosis and/or by direct fusion with the plasma membrane.

[8] = fluorescence observation, in words

CCCCCCCCCCCCNC(=O)CCC(=O)NCCCN1CCN(CCCN)CC1 [Compound 44]
cells transfected A10 (A10 cells): < 10
cells transfected CV-1 (CV-1 cells [1]): < 5

CCCCCCCCCCCCCCN(CCCCCCCCCCCCCC)C(=O)CNC(=O)[C@@H](N)CCCNC(=N)N [Compound 55]
cytotoxicity at 6 h [2]: > 40%
% cells transfected (CV-1 cells [3]; 1 μg lipid): 40%
% cells transfected (CV-1 cells [3]; 2.5 μg lipid): 75%
% cells transfected (CV-1 cells [3]; 5.0 μg lipid): 100%
% cells transfected (CV-1 cells [3]; 10.0 μg lipid): 40%
cdc-2 protein levels (cdc-2 kinase): efficiently reduced cdc-2 protein levels

CCCCCCCCCCCCCCN(CCCCCCCCCCCCCC)C(=O)CNC(=O)C(N)CCCNC(=N)NC(=O)OC(C)C.Cl.Cl (centres unmarked) [Compound 53]
% cells transfected (CV-1 cells [3]; 1 μg lipid): 30%
% cells transfected (CV-1 cells [3]; 2.5 μg lipid): 70%
% cells transfected (CV-1 cells [3]; 5.0 μg lipid): 100%
% cells transfected (CV-1 cells [3]; 10.0 μg lipid): 60%
cdc-2 protein levels (cdc-2 kinase): efficiently reduced cdc-2 protein levels

CCCCCCCCCCCCCCN(CCCCCCCCCCCCCC)C(=O)CNC(=O)C(N)CCCNC(=N)NC(=O)C(C)(C)C.Cl.Cl (centres unmarked) [Compound 54]
% cells transfected (CV-1 cells [3]; 1 μg lipid): 10-20%
% cells transfected (CV-1 cells [3]; 2.5 μg lipid): 30-40%
% cells transfected (CV-1 cells [3]; 5.0 μg lipid): 70-80%
% cells transfected (CV-1 cells [3]; 10.0 μg lipid): 40%

CCCCCCCCCCCCCCN(CCCCCCCCCCCCCC)C(=O)CNC(=O)C(N)CCCNC(=N)NC(C)=O.Cl.Cl (centres unmarked) [Compound 52]
% cells transfected (CV-1 cells [3]; 1 μg lipid): 30-40%
% cells transfected (CV-1 cells [3]; 2.5 μg lipid): 60%
% cells transfected (CV-1 cells [3]; 5.0 μg lipid): 60%
% cells transfected (CV-1 cells [3]; 10.0 μg lipid): 60%

CCCCCCCCCCCCCCCCCCN(CCCCCCCCCCCCCCCCCC)C(=O)CCC(=O)NCCCN1CCN(CCCN)CC1 [Compound 38]
cells transfected A10 (A10 cells): 85
toxicity to A10 cells (A10 cells): little or no toxicity
transfection of A10 in the presence of serum (A10 cells): efficiently transfected
cells transfected CV-1 (CV-1 cells [1]): 70
toxicity to CV-1 cells (CV-1 cells [1]; in words): little or no toxicity
transfection of CV-1 in the presence of serum (CV-1 cells [1]; in words): efficiently transfected
% SK-OV-3 transfected (SK-OV-3 cells; 40% serum): < 10%
% SK-OV-3 transfected (SK-OV-3 cells; 80% serum): 0%

CCCCCCCCCCCCCCCCCCN(CCCCCCCCCCCCCCCCCC)C(=O)CNC(=O)[C@@H](N)CCCN.Cl.Cl [Compound 30]
% L7 transfected (L7 cells; 2.5 μg/mL lipid): 10%
% L7 transfected (L7 cells; 5 μg/mL lipid): 30%
% L7 transfected (L7 cells; 10 μg/mL lipid): 60%
toxicity L7 (L7 cells; in words): little or no toxicity
transfection of L7 (L7 cells; in words): efficiently transfected
toxicity to CV-1 cells (CV-1 cells [4]): little or no toxicity
% NHEK transfected (NHEK cells; 1 μg/mL lipid, second series): 25%
% NHEK transfected (NHEK cells; 2.5 μg/mL lipid, second series): 50%
% NHEK transfected (NHEK cells; 5 μg/mL lipid, first series): 80-90%
% NHEK transfected (NHEK cells; 5 μg/mL lipid, second series): 60-70%
% NHEK transfected (NHEK cells; 10 μg/mL lipid, first series): 70%
% NHEK transfected (NHEK cells; 10 μg/mL lipid, second series): 60-70%
% NHEK transfected (NHEK cells; 20 μg/mL lipid, first series): 60%
level of ODN1 delivered into NHEK cells (NHEK cells; [8]): high levels
toxicity NHEK (NHEK cells; in words): little to moderate toxicity
transfection of NHEK (NHEK cells; in words): efficiently transfected
amount of polyanion delivered into cells relative to commercially available lipids (cells [5]): 2- to 100 fold
% ECl transfected (ECl cells; 2.5 μg/mL lipid, 5 hour transfection): 10%
% ECl transfected (ECl cells; 5 μg/mL lipid, 5 hour transfection): 25-30%
% ECl transfected (ECl cells; 5 μg/mL lipid, 6 hour transfection): 30%
% ECl transfected (ECl cells; 10 μg/mL lipid, 5 hour transfection): 51%
% ECl transfected (ECl cells; 10 μg/mL lipid, 6 hour transfection): 43%
% ECl transfected (ECl cells; 15 μg/mL lipid, 5 hour transfection): 70%
% ECl transfected (ECl cells; 20 μg/mL lipid, 6 hour transfection): 20%
level of ODN1 delivered into ECl cells (ECl cells; [8]): high levels
toxicity ECl (ECl cells; in words): little to moderate toxicity
transfection of ECl (ECl cells; in words): efficiently transfected
% HL60 transfected (HL60 cells; 20 μg/mL, 0% serum, 5 h): 77%
% HL60 transfected (HL60 cells; 20 μg/mL, 10% serum, 5 h): 76%
toxicity HL60 (HL60 cells; 20 μg/mL, 10% serum, 5 h, footnote): significant toxicity noted
transfection of HL60 (HL60 cells; in words): efficiently transfected
% CV-1 transfected (CV-1 cells [6]; 2.5 μg/mL, 10% serum): 90%
% CV-1 transfected (CV-1 cells [6]; 5 μg/mL, 10% serum): > 95%
% CV-1 transfected (CV-1 cells [6]; 10 μg/mL, 10% serum): > 95%
% CV-1 transfected (CV-1 cells [6]; 15 μg/mL, 10% serum): > 95%
% CV-1 transfected (CV-1 cells [6]; 20 μg/mL, 50% serum): 95%
% CV-1 transfected (CV-1 cells [6]; 20 μg/mL, 80% serum): 90%
transfection of CV-1 at reduced levels of lipid (CV-1 cells [6]; in words): efficiently transfected
cells transfected A10 (A10 cells): 95
toxicity to A10 cells (A10 cells): little or no toxicity
transfection of A10 in the presence of serum (A10 cells): efficiently transfected
cells transfected CV-1 (CV-1 cells [1]): 85
transfection of CV-1 in the presence of serum (CV-1 cells [1]; in words): efficiently transfected
% HUVEC transfected (HUVEC cells; 5 μg/mL lipid): 1%
% HUVEC transfected (HUVEC cells; 10 μg/mL lipid): 5%
transfection of HUVEC (HUVEC cells; in words): modest efficiency
transfection efficiency of 50 nm filtered preparations relative to larger particles (cells [7]; 50 nm filter): 40-50%
transfection efficiency of 200 nm or 100 nm filtered preparations (cells [7]; in words): the most efficient (and equally efficient)
% SK-OV-3 transfected (SK-OV-3 cells; 40% serum): 76%
% SK-OV-3 transfected (SK-OV-3 cells; 80% serum): 72%
transfection of SK-OV-3 in the presence of serum (SK-OV-3 cells; in words): efficiently transfected
